Reference: PubChem BioAssay (NCI)
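Dose response: 5 concentrations. Exposure: 48 h. Format: 96-well plates. Endpoint: linear interpolation; highest concentration if not reached. The concentration for 50% growth inhibition is given as GI50. TGI: concentration producing complete growth inhibition.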

Legend:
Assay in all cases: growth of human tumour cells (NCI), 48 h
SNB-19 CNS = system: SNB-19 CNS
RPMI-8226 leukemia = system: RPMI-8226 leukemia
KM12 colon = system: KM12 colon
HOP-62 NSCLC = system: HOP-62 NSCLC
T-47D breast = system: T-47D breast
HCT-15 colon = system: HCT-15 colon
A549 NSCLC = system: A549 NSCLC
LOX IMVI melanoma = system: LOX IMVI melanoma
CCRF-CEM leukemia = system: CCRF-CEM leukemia
SK-MEL-2 melanoma = system: SK-MEL-2 melanoma
SK-MEL-5 melanoma = system: SK-MEL-5 melanoma
EKVX NSCLC = system: EKVX NSCLC
OVCAR-4 ovarian = system: OVCAR-4 ovarian
MDA-MB-231 breast = system: MDA-MB-231 breast
SF-539 CNS = system: SF-539 CNS
UO-31 renal = system: UO-31 renal
NCI-H226 lung = system: NCI-H226 lung
OVCAR-3 ovarian = system: OVCAR-3 ovarian
UACC-62 melanoma = system: UACC-62 melanoma
HCC-2998 colon = system: HCC-2998 colon
SW-620 colon = system: SW-620 colon
BT-549 breast = system: BT-549 breast
MALME-3M melanoma = system: MALME-3M melanoma
HOP-92 NSCLC = system: HOP-92 NSCLC
OVCAR-5 ovarian = system: OVCAR-5 ovarian
SF-268 CNS = system: SF-268 CNS
SR leukemia = system: SR leukemia
K-562 leukemia = system: K-562 leukemia
UACC-257 melanoma = system: UACC-257 melanoma
PC-3 prostate = system: PC-3 prostate
SNB-75 CNS = system: SNB-75 CNS
CAKI-1 renal = system: CAKI-1 renal
SK-OV-3 ovarian = system: SK-OV-3 ovarian
MOLT-4 leukemia = system: MOLT-4 leukemia
HT29 colon = system: HT29 colon
NCI-H522 lung = system: NCI-H522 lung
SF-295 CNS = system: SF-295 CNS
IGROV1 ovarian = system: IGROV1 ovarian
U251 CNS = system: U251 CNS
SK-MEL-28 melanoma = system: SK-MEL-28 melanoma
HL-60(TB) leukemia = system: HL-60(TB) leukemia
SN12C renal = system: SN12C renal
MCF7 breast = system: MCF7 breast
ACHN renal = system: ACHN renal
NCI-H460 lung = system: NCI-H460 lung
OVCAR-8 ovarian = system: OVCAR-8 ovarian
DU-145 prostate = system: DU-145 prostate
HS 578T breast = system: HS 578T breast
RXF 393 renal = system: RXF 393 renal
A498 renal = system: A498 renal
TK-10 renal = system: TK-10 renal
MDA-MB-435 = system: MDA-MB-435
NCI/ADR-RES ovarian = system: NCI/ADR-RES ovarian
786-0 renal = system: 786-0 renal
COLO 205 colon = system: COLO 205 colon
HCT-116 colon = system: HCT-116 colon
NCI-H23 lung = system: NCI-H23 lung
M14 melanoma = system: M14 melanoma

With `O=C(Nc1ccccc1Cl)c1cnc2ccc(C3CCNCC3)cn12` the GI50 (SNB-19 CNS) was > 87.7 µM, the TGI (SNB-19 CNS) was > 100 µM and the GI50 (RPMI-8226 leukemia) was > 69 µM. The TGI (RPMI-8226 leukemia) was > 100 µM, the GI50 (KM12 colon) was > 85.4 µM and the TGI (KM12 colon) was > 100 µM. For the same molecule, the GI50 (HOP-62 NSCLC) was 16.8 µM, the TGI (HOP-62 NSCLC) was > 100 µM and the GI50 (T-47D breast) was 5.53 µM. For the same molecule, the TGI (T-47D breast) was > 100 µM, the GI50 (HCT-15 colon) was 11 µM and the TGI (HCT-15 colon) was > 100 µM. The GI50 (A549 NSCLC) was 11.5 µM, the TGI (A549 NSCLC) was > 100 µM and the GI50 (LOX IMVI melanoma) was 2.07 µM. The TGI (LOX IMVI melanoma) was 17 µM, the GI50 (CCRF-CEM leukemia) was > 100 µM and the TGI (CCRF-CEM leukemia) was > 100 µM. The GI50 (SK-MEL-2 melanoma) was 42.3 µM, the TGI (SK-MEL-2 melanoma) was > 94 µM and the GI50 (SK-MEL-5 melanoma) was 13 µM. For the same molecule, the TGI (SK-MEL-5 melanoma) was 26.6 µM, the GI50 (EKVX NSCLC) was 11.7 µM and the TGI (EKVX NSCLC) was > 100 µM. The GI50 (OVCAR-4 ovarian) was > 75.1 µM, the TGI (OVCAR-4 ovarian) was > 100 µM and the GI50 (MDA-MB-231 breast) was 2.48 µM. For the same molecule, the TGI (MDA-MB-231 breast) was 59.7 µM, the GI50 (SF-539 CNS) was 4.94 µM and the TGI (SF-539 CNS) was > 100 µM. For the same molecule, the GI50 (UO-31 renal) was 2.13 µM, the TGI (UO-31 renal) was > 100 µM and the GI50 (NCI-H226 lung) was > 24.4 µM. For the same molecule, the TGI (NCI-H226 lung) was > 100 µM, the GI50 (OVCAR-3 ovarian) was 5.6 µM and the TGI (OVCAR-3 ovarian) was > 100 µM. For the same molecule, the GI50 (UACC-62 melanoma) was 14.2 µM, the TGI (UACC-62 melanoma) was 56.7 µM and the GI50 (HCC-2998 colon) was > 100 µM. The TGI (HCC-2998 colon) was > 100 µM, the GI50 (SW-620 colon) was > 100 µM and the TGI (SW-620 colon) was > 100 µM. For the same molecule, the GI50 (BT-549 breast) was > 73.7 µM, the TGI (BT-549 breast) was > 100 µM and the GI50 (MALME-3M melanoma) was 22.1 µM. For the same molecule, the TGI (MALME-3M melanoma) was > 94.5 µM, the GI50 (HOP-92 NSCLC) was 0.703 µM and the TGI (HOP-92 NSCLC) was 7.28 µM. The GI50 (OVCAR-5 ovarian) was 1.9 µM, the TGI (OVCAR-5 ovarian) was > 100 µM and the GI50 (SF-268 CNS) was 9.04 µM. For the same molecule, the TGI (SF-268 CNS) was > 100 µM, the GI50 (SR leukemia) was 37.2 µM and the TGI (SR leukemia) was > 100 µM. For the same molecule, the GI50 (K-562 leukemia) was 8.23 µM, the TGI (K-562 leukemia) was > 100 µM and the GI50 (UACC-257 melanoma) was 16.2 µM. For the same molecule, the TGI (UACC-257 melanoma) was 37.1 µM, the GI50 (PC-3 prostate) was 14.3 µM and the TGI (PC-3 prostate) was > 100 µM. For the same molecule, the GI50 (SNB-75 CNS) was 0.15 µM, the TGI (SNB-75 CNS) was 5.02 µM and the GI50 (CAKI-1 renal) was 1.51 µM. For the same molecule, the TGI (CAKI-1 renal) was 12 µM, the GI50 (SK-OV-3 ovarian) was 3.05 µM and the TGI (SK-OV-3 ovarian) was > 100 µM. The GI50 (MOLT-4 leukemia) was 55.9 µM, the TGI (MOLT-4 leukemia) was > 100 µM and the GI50 (HT29 colon) was 1.77 µM. The TGI (HT29 colon) was 18.6 µM, the GI50 (NCI-H522 lung) was 1.06 µM and the TGI (NCI-H522 lung) was > 100 µM. The GI50 (SF-295 CNS) was 24.8 µM, the TGI (SF-295 CNS) was > 83.9 µM and the GI50 (IGROV1 ovarian) was 0.626 µM. For the same molecule, the TGI (IGROV1 ovarian) was 14.6 µM, the GI50 (U251 CNS) was 51.7 µM and the TGI (U251 CNS) was > 100 µM. The GI50 (SK-MEL-28 melanoma) was 18.4 µM, the TGI (SK-MEL-28 melanoma) was 43.3 µM and the GI50 (HL-60(TB) leukemia) was > 67.9 µM. For the same molecule, the TGI (HL-60(TB) leukemia) was > 100 µM, the GI50 (SN12C renal) was 3.71 µM and the TGI (SN12C renal) was > 100 µM. For the same molecule, the GI50 (MCF7 breast) was > 68.9 µM, the TGI (MCF7 breast) was > 100 µM and the GI50 (ACHN renal) was 1.02 µM. The TGI (ACHN renal) was > 46.5 µM, the GI50 (NCI-H460 lung) was > 87.3 µM and the TGI (NCI-H460 lung) was > 100 µM. For the same molecule, the GI50 (OVCAR-8 ovarian) was 13.5 µM, the TGI (OVCAR-8 ovarian) was > 100 µM and the GI50 (DU-145 prostate) was 6.62 µM. For the same molecule, the TGI (DU-145 prostate) was > 100 µM, the GI50 (HS 578T breast) was 0.292 µM and the TGI (HS 578T breast) was 2.92 µM. It also gave a GI50 (RXF 393 renal) of 0.802 µM, a TGI (RXF 393 renal) of 4.84 µM and a GI50 (A498 renal) of 1.49 µM. For the same molecule, the TGI (A498 renal) was > 45.5 µM, the GI50 (TK-10 renal) was 1.92 µM and the TGI (TK-10 renal) was 12.2 µM. For the same molecule, the GI50 (MDA-MB-435) was 32.6 µM, the TGI (MDA-MB-435) was > 100 µM and the GI50 (NCI/ADR-RES ovarian) was 39.2 µM. The TGI (NCI/ADR-RES ovarian) was > 100 µM, the GI50 (786-0 renal) was 3.18 µM and the TGI (786-0 renal) was > 100 µM. It also gave a GI50 (COLO 205 colon) of 2.85 µM, a TGI (COLO 205 colon) of 25 µM and a GI50 (HCT-116 colon) of 13.4 µM. For the same molecule, the TGI (HCT-116 colon) was > 100 µM, the GI50 (NCI-H23 lung) was 74.5 µM and the TGI (NCI-H23 lung) was > 100 µM. It also gave a GI50 (M14 melanoma) of 15.2 µM and a TGI (M14 melanoma) of 33.3 µM.
